Reference: patent publication US8822172B2, “Method of detecting isolevuglandin phospholipid adducts” (Case Western Reserve University, priority 2009, dated 2014)
Read-outs that look alike come from different tables or passages of the source.

What was measured:
[1] = Cu^2+; cited from earlier work
[2] = Fe^3+; cited from earlier work
[3] = Ca2^+; cited from earlier work
[4] = tested on: TNF-α; conditions: long-term ethanol feeding; early peak at 2% d2, later peak at 5% wk 4
From the text: (§1) All procedures using animals were approved by the Cleveland Clinic Foundation Institutional Animal Care and Use Committees. Mice were housed in shoe-box cages (2 animals/cage) with microisolator lids. Standard microisolator handling procedures were used throughout the study. Mice were randomized into ethanol-fed and pair-fed groups and then adapted to control liquid diet for 2 days. The ethanol-fed group was allowed free access to ethanol containing diet with increasing concentrations of ethanol: 1% (vol/vol) and 2% each for 2 days, then 4% ethanol for 7 d, and finally 5% ethanol for a further 4 weeks. For the dose-response experiment, mice were allowed free access to 1% ethanol for 2 days and then 2%, 4% or 6% ethanol for a further 2 days. Control mice were pair-fed diets which iso-calorically substituted maltose dextrins for ethanol over the entire feeding period. Mice were then anesthetized, blood samples taken into non-heparinized syringes from the posterior vena cava, livers blanched with saline via the portal vein and then excised. Portions of each liver were then either fixed in formalin or frozen in optimal cutting temperature (OCT) compound (Sakura Finetek U.S.A., Inc., Torrance Calif.) for histology, frozen in RNAlater (Qiagen, Valencia, Calif.) or flash frozen in liquid nitrogen and stored at −80° C. until further analysis. […]

[5] = tested on: mouse liver; conditions: short-term model of ethanol exposure, 2, 4 or 6% for 2 days
From the text: as §1

[6] = tested on: mouse liver; conditions: chronic ethanol-fed vs pair-fed mice, P=0.00021
Protocol: The tissue was homogenized manually using a Teflon-coated stainless steel pestle. After homogenization, the resulting mixture was placed in a 4° C. freezer for 30 min to maximize the lipid extraction efficiency. An aqueous solution of sodium chloride (1.5%, w/w, 1/4 the volume of the organic extract) was added. The resulting mixture was centrifuged at 3000 rpm for 15 min. The lower layer containing the lipids was carefully withdrawn with a polyethylene transfer pipette, making sure to avoid the interface or upper layer. The solvents were then evaporated under a stream of dry argon at room temperature, and the sample was stored under argon at −80° C. before being analyzed using LC-MS/MS.
The resulting mixture was sonicated for 5 min followed by the addition of PLA2 enzyme (50 μl of 10,000 units/ml). […]
Direct infusion MS and LC-MS/MS were performed on a Quattro Ultima triple-quadrupole mass spectrometer (Micromass, Wythenshawe, UK). […] The total ion current was measured in the mass-to-charge ratio (m/z) range of 50-900 at 30 V of cone energy in the negative ion mode with a 3.5-kV electrospray capillary voltage, 60-V cone voltage, 120° C. source temperature, 250° C. desolvation temperature, 65 L/h cone gas flow, and 658 L/h desolvation gas flow. […] All retention times of analytes shown in MRM spectra were recorded relative to the internal standard (iso[4]LGE2-D31-lysoPE-HL, 11.83 min). […]

[7] = tested on: mouse liver; conditions: chronic ethanol-fed mouse liver (5% wk 4), ELISA and LC/MS
From the text: Mice were housed in shoe-box cages (2 animals/cage) with microisolator lids. Standard microisolator handling procedures were used throughout the study. […] Mice were then anesthetized, blood samples taken into non-heparinized syringes from the posterior vena cava, livers blanched with saline via the portal vein and then excised. Portions of each liver were then either fixed in formalin or frozen in optimal cutting temperature (OCT) compound (Sakura Finetek U.S.A., Inc., Torrance Calif.) for histology, frozen in RNAlater (Qiagen, Valencia, Calif.) or flash frozen in liquid nitrogen and stored at −80° C. until further analysis. Blood was transferred to heparin-containing tubes for the isolation of plasma. Plasma was then stored at −80° C.
Liver homogenates were prepared as described except that 50 μM butylated hydroxytoluene (BHT) and 100 μM diethylenetriamine pentaacetic acid (DTPA) were added to the buffer to prevent aerial oxidation of lipids during homogenization. 50 μg of protein was used in the ELISA.

[8] = tested on: plasma ALT; conditions: short-term model, 2, 4 or 6% ethanol diet for 2 days
From the text: (§2) All procedures using animals were approved by the Cleveland Clinic Foundation Institutional Animal Care and Use Committees. Mice were housed in shoe-box cages (2 animals/cage) with microisolator lids. Standard microisolator handling procedures were used throughout the study. […] Mice were then anesthetized, blood samples taken into non-heparinized syringes from the posterior vena cava, livers blanched with saline via the portal vein and then excised. Portions of each liver were then either fixed in formalin or frozen in optimal cutting temperature (OCT) compound (Sakura Finetek U.S.A., Inc., Torrance Calif.) for histology, frozen in RNAlater (Qiagen, Valencia, Calif.) or flash frozen in liquid nitrogen and stored at −80° C. until further analysis. Blood was transferred to heparin-containing tubes for the isolation of plasma. Plasma was then stored at −80° C.
Plasma samples were assayed for alanine aminotransferase (ALT) using a commercially available enzymatic assay kit (Diagnostic Chemicals, LTD, Oxford, Conn.) following the manufacturer's instructions.

[9] = tested on: hepatic triglycerides; conditions: short-term model, 2, 4 or 6% ethanol diet for 2 days
From the text: as §2
Formalin-fixed tissues were paraffin embedded, sectioned and stained with hematoxylin and eosin. Sections were coded prior to analysis and examined by two independent individuals. For Oil Red O staining, 10 micron sections were cut from frozen OCT samples and affixed to a microscope slide. Slides were then stored at 4° C. until staining. […] Total liver triglycerides were measured using the Triglyceride Reagent Kit from Pointe Scientific Inc. (Lincoln Park, Mich.).

[10] = tested on: CYP2E1; conditions: chronic ethanol feeding, maximum at 5% wk 2
From the text: All procedures using animals were approved by the Cleveland Clinic Foundation Institutional Animal Care and Use Committees. Mice were housed in shoe-box cages (2 animals/cage) with microisolator lids. Standard microisolator handling procedures were used throughout the study. […] Mice were then anesthetized, blood samples taken into non-heparinized syringes from the posterior vena cava, livers blanched with saline via the portal vein and then excised. Portions of each liver were then either fixed in formalin or frozen in optimal cutting temperature (OCT) compound (Sakura Finetek U.S.A., Inc., Torrance Calif.) for histology, frozen in RNAlater (Qiagen, Valencia, Calif.) or flash frozen in liquid nitrogen and stored at −80° C. until further analysis. […]
0.5-1.0 g of frozen liver tissue was homogenized in 10 ml/g tissue in lysis buffer (50 mM Tris-HCl, pH7.4, 1% NP-40, 0.25% Na-deoxycholate, 150 mM NaCl, 1 mM EDTA with added protease inhibitors Complete™ (Roche Diagnostics, Mannheim, Germany), 17.5 μg/ml aprotinin, 5 μg/ml bestatin, 10 μg/ml leupeptin, 1 mg/ml bacitracin, and 20 μg/ml E64) and phosphatase inhibitors (1 mM vanadate and 10 mM Na pyrophosphate)) using 15 strokes in a glass on glass homogenizer (loose pestle). […] Protein concentrations were measured. […] Bound antibody was detected by chemiluminescence. Immunoreactive protein quantity was assessed by scanning densitometry.

SMILES: O=C(O)CN(CCN(CC(=O)O)CC(=O)O)CC(=O)O [EDTA, ethylenediaminetetraacetic acid]
- stability constant log K of EDTA complex [1]: 18.8
- stability constant log K of EDTA complex [2]: 25.1
- stability constant log K of EDTA complex [3]: 10.7

SMILES: CCO [ethanol]
- TNF-α in mouse liver [4]: biphasic induction
- 4-HNE, LGE2 and iso[4]LGE2-protein adducts in liver [5]: increased only at 6% ethanol feeding
- isoLG-lysoPE-HL liver levels compared to pair-fed mice [6]: Twofold higher
- adducts of iso[4]LGE2 in liver compared to pair-fed animals [7]: 2 fold
- plasma ALT [8]: increased at 4 and 6%
- hepatic triglycerides [9]: increased at 4 and 6%
- hepatic CYP2E1 expression [10]: increased over time
